T1: Glutamate racemase (Lactobacillus fermentum, UniProt Q03469)
T1 sequence (Q03469 whole entry): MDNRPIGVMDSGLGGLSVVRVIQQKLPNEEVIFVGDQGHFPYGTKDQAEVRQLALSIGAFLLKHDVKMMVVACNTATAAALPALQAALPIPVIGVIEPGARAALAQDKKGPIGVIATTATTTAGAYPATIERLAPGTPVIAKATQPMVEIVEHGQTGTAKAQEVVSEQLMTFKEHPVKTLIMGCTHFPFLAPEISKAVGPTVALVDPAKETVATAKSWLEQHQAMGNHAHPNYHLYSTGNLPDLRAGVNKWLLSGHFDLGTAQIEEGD

T2: Glutamate racemase (Lactobacillus fermentum) (UniProt Q03469)
T2 sequence (whole entry): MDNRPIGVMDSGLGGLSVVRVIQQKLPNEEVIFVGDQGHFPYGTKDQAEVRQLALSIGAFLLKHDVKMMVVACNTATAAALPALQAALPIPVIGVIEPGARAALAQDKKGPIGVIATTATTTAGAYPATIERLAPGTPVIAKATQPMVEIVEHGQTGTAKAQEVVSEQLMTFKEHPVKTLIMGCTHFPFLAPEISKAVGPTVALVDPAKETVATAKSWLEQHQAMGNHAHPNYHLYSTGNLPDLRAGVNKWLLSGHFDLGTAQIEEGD


Assays:
[1] = Inhibition towards diaminopimelate (DAP) epimerase was determined and expressed as KI
[2] = Inhibition towards diaminopimelate (DAP) epimerase was determined
Glutamate racemase [3] = target: T1, Glutamate racemase; experiment: Inhibition towards glutamate racemase from Lactobacillus fermenti was determined and expressed as KI; design: species or system Limosilactobacillus fermentum
[4] = Ratio of kcat to that of KM was determined
[5] = target: T2, Glutamate racemase (Lactobacillus fermentum); experiment: Enzyme kinetic constant for Glutamate racemase and expressed as Kcat
Glutamate racemase [6] = target: T1, Glutamate racemase; experiment: Inhibition towards glutamate racemase was determined and expressed as KI; design: species or system Limosilactobacillus fermentum
[7] = substrate: O=C(O)CCC(=O)C(=O)O; experiment: Enzyme kinetic constant for Glutamate racemase and expressed as Km
[8] = substrate: N[C@H](CCC(=O)O)C(=O)O; settings: Limosilactobacillus fermentum

Row | Molecule | IC50 [2] | k cat/Km [4] | further results
1 | NC(CCCC(NO)C(=O)O)C(=O)O (centres undefined) |  |  | Ki [1]: 5.6 µM
2 | N[C@H](C(=O)O)[C@@H](F)CC[C@H](N)C(=O)O | 4 µM |  | 
3 | N[C@@H](CC[C@H](F)[C@@H](N)C(=O)O)C(=O)O | 8 µM |  | 
4 | N[C@@H](CCC(=O)O)C(=O)O [GLUTAMIC ACID] |  | 30 M⁻¹ s⁻¹ | Ki (Glutamate racemase [3]): 28 µM
5 | O=C(O)CCC(=O)C(=O)O |  | 3200 M⁻¹ s⁻¹ | k cat [5]: 0.18 s⁻¹
6 | N[C@H](C(=O)O)[C@H](F)CC[C@H](N)C(=O)O | 10 µM |  | 
7 | N[C@H](CCC(=O)O)C(=O)O [D-GLUTAMATE] |  | 3700 M⁻¹ s⁻¹ | Ki (Glutamate racemase [3]): 56 µM; Ki (Glutamate racemase [6]): 190 µM
8 | N[C@@H](CC[C@@H](F)[C@@H](N)C(=O)O)C(=O)O | 25 µM |  | 
9 | Glutamate racemase (Lactobacillus fermentum), Q03469 (protein) MDNRPIGVMDSGLGGLSVVRVIQQKLPNEEVIFVGDQGHFPYGTKDQAEVRQLALSIGAFLLKHDVKMMVVACNTATAAALPALQAALPIPVIGVIEPGARAALAQDKKGPIGVIATTATTTAGAYPATIERLAPGTPVIAKATQPMVEIVEHGQTGTAKAQEVVSEQLMTFKEHPVKTLIMGCTHFPFLAPEISKAVGPTVALVDPAKETVATAKSWLEQHQAMGNHAHPNYHLYSTGNLPDLRAGVNKWLLSGHFDLGTAQIEEGD |  |  | Km [7]: 57 µM; Km [8]: 300 µM

— ChEMBL document CHEMBL1150481, “The inhibition of glutamate racemase by” (Bioorg Med Chem Lett, 1997)
